The assay deals with α-glucosidase. Briefly: α-glucosidase inhibition assay in 96-well plates (modified Sawada et al.). It counts as biochemical.

Values after ≈ are worked out from the molar mass of the structure shown.

One may read the IC50 as the concentration at which inhibition is half-maximal. A low value points to greater potency in that assay.

The molecule `COc1cccc2cc(C(C)=O)oc12` [compound 7, 2-acetyl-7-methoxybenzofuran] had an IC50 of 1.1 µg/mL (≈ 5.78 µM). With `COC1=CC(=O)c2c(cc3c(c2O)COC3)C1=O` [compound 4, 5-hydroxy-2-methoxynaphtho[9–c]furan-1,4-dione], the IC50 amounted to 5.7 µg/mL (≈ 23.2 µM).

Values taken from PMC6950716, “Bioactive Secondary Metabolites from the Culture of the Mangrove-Derived Fungus Daldinia eschscholtzii HJ004” (Marine Drugs, 2019).
